# According to patent publication US11911396B2, “Use of compound in preparation of drug for treating cerebral small vessel disease” (GUANGZHOU CELLPROTEK PHARMACEUTICAL CO., LTD, priority 2017, dated 2024):
# What was measured:
# [1] = test system: Iba1; assay: Immunofluorescence of Iba1 in prefrontal cortex brain tissue, acute hypobaric hypoxia model; format: in vivo, cynomolgus monkeys; settings: FIG. 5
# Excerpt: (§1) FIG. 5. […] A. Immunofluorescence imaging of CD163 and Iba-1 in the brain tissue of cynomolgus monkeys. B. Statistics of relative fluorescence intensity of CD163 and Iba-1. C. Correlation analysis of relative fluorescence intensity of CD163 and Iba-1. NN: Normobaric Normoxia group; HH: Hypobaric Hypoxia group; HH+Triol: Hypobaric Hypoxia with Triol administration group; HH+PROG: Hypobaric Hypoxia with progesterone administration group. One-way ANOVA analysis and Dunnutt's t test were used to perform statistical tests, and in the latter each group was compared with the HH group, ***, p<0.001.
# (§2) The thickness of paraffin sections was 5 μm. For fresh paraffin sections, the sections were dried at 37° C. overnight and then dried at 55° C. for 30 minutes. The sections were quickly placed in xylene for dewaxing. After fully dewaxing with xylene for 10 min for 3 times, absolute ethanol-95% ethanol-90% ethanol-80% ethanol-70% ethanol-50% ethanol-ddH2O were successively used for gradient rehydration. After rehydration, the sections were placed in EDTA antigen repair solution for microwave high temperature repair. After the repair was completed, it was allowed naturally cool down to room temperature. […] NIS-Elements Analysis software was used to analyze the fluorescence intensity of confocal images, which was then normalized with the fluorescence intensity per unit area according to the built-in scale. […]
# [2] = test system: CD163; assay: Immunofluorescence of CD163 in prefrontal cortex brain tissue, acute hypobaric hypoxia model; format: in vivo, cynomolgus monkeys; settings: FIGS. 5A and 5B
# Excerpt: as §1, §2
smiles,measurement,setting,value
"CC(=O)[C@H]1CC[C@H]2[C@@H]3CCC4=CC(=O)CC[C@]4(C)[C@H]3CC[C@]12C [progesterone, reference compound]",Iba1 expression,[1],increased
same,down-regulation of CD163 expression caused by acute hypobaric hypoxia,[2],did not cancel the inhibition
